The results in this text go back to BindingDB's records for doi:10.1016/s0960-894x(02)01027-2 (Glaxosmithkline, 2003).

The structures appear in SMILES notation.

One assay concerns the target Methionine--tRNA ligase (Staphylococcus aureus). The assay is described as follows: Compound tested for inhibition of Staphylococcus aureus MRS(methionyl tRNA synthetase) in aminoacylation assay.
For orientation: IC50 means the point on the concentration scale where inhibition reaches its midpoint. A higher IC50 goes with weaker potency. `Oc1cc(NCCCNCc2ccccc2)nc2ccccc12` [2-(3-Benzylamino-propylamino)-1H-quinolin-4-one] gave an IC50 of 300 nM. This counts as sub-micromolar.
On the same count and under the same terms, next, `Oc1cc(NCCCNCc2cccc(Cl)c2Cl)nc2ccccc12` [2-[3-(2,3-Dichloro-benzylamino)-propylamino]-1H-quinolin-4-one]: 15 nM; `Oc1cc(NCCCNCc2cc(Cl)ccc2Cl)nc2ccccc12` [2-[3-(2,5-Dichloro-benzylamino)-propylamino]-1H-quinolin-4-one]: 9 nM; `C=CCOc1c(Cl)cc(Cl)cc1CNCCCNc1cc(O)c2ccccc2n1` [2-[3-(2-Allyloxy-3,5-dichloro-benzylamino)-propylamino]-1H-quinolin-4-one]: 7.2 nM.
As to `Nc1c(Br)cc(Br)cc1CNCCCNc1cc(O)c2ccccc2n1` [2-[3-(2-Amino-3,5-dibromo-benzylamino)-propylamino]-1H-quinolin-4-one], the IC50 turned out to be 9.1 nM.
`Oc1cc(NCCCOCc2ccc(Cl)c(Cl)c2)nc2ccccc12` [2-[3-(3,4-Dichloro-benzyloxy)-propylamino]-1H-quinolin-4-one] returned an IC50 of 50 nM.
`Oc1cc(NCCCSCc2ccc(Cl)c(Cl)c2)nc2ccccc12` [2-[3-(3,4-Dichloro-benzylsulfanyl)-propylamino]-1H-quinolin-4-one]: the midpoint of inhibition, the IC50, lay at 170 nM.
Still for that read-out and setting: next, `CCOc1c(Br)cc(Br)cc1CNCCCNc1cc(O)c2ccccc2n1` [2-[3-(3,5-Dibromo-2-ethoxy-benzylamino)-propylamino]-1H-quinolin-4-one]: 4.4 nM; `CCNc1c(Br)cc(Br)cc1CNCCCNc1cc(O)c2ccccc2n1` [2-[3-(3,5-Dibromo-2-ethylamino-benzylamino)-propylamino]-1H-quinolin-4-one]: 18 nM.
Still for that read-out and setting: for `CNc1c(Br)cc(Br)cc1CNCCCNc1cc(O)c2ccccc2n1` [2-[3-(3,5-Dibromo-2-methylamino-benzylamino)-propylamino]-1H-quinolin-4-one] the value was 11 nM; for `CCOc1c(Cl)cc(Cl)cc1CNCCCNc1cc(O)c2ccccc2n1` [2-[3-(3,5-Dichloro-2-ethoxy-benzylamino)-propylamino]-1H-quinolin-4-one], 14 nM.
For `CC(C)Oc1c(Cl)cc(Cl)cc1CNCCCNc1cc(O)c2ccccc2n1` [2-[3-(3,5-Dichloro-2-isopropoxy-benzylamino)-propylamino]-1H-quinolin-4-one], the IC50 was determined as 29 nM. Against the preceding compound, the IC50 is about 2.1-fold higher.
On the same count and under the same terms, next, `Oc1cc(NCCCNCc2cc(Cl)cc(Cl)c2)nc2ccccc12` [2-[3-(3,5-Dichloro-benzylamino)-propylamino]-1H-quinolin-4-one]: 3 nM; `CCOc1cc(Br)c(OCC)c(CNCCCNc2cc(O)c3ccccc3n2)c1` [2-[3-(3-Bromo-2,5-diethoxy-benzylamino)-propylamino]-1H-quinolin-4-one]: 61 nM.
`CCOc1c(Br)cc(I)cc1CNCCCNc1cc(O)c2ccccc2n1` [2-[3-(3-Bromo-2-ethoxy-5-iodo-benzylamino)-propylamino]-1H-quinolin-4-one] yielded an IC50 of 8.8 nM. Compared with the last compound, the IC50 is about 6.9-fold lower.

A further assay has the same target. Put plainly: Compound tested for inhibition of Staphylococcus aureus MRS (methionyl tRNA synthetase) in aminoacylation assay.
In the case of `Oc1cc(NCCCNC2CCNc3c(Br)cc(Cl)cc32)nc2ccccc12` (stereo not drawn), the IC50 is less than 3 nM.
Same read-out and setting: next, `O=c1cc(NCCCNC2CCOc3c(Cl)cc(Cl)cc32)[nH]c2ccccc12` (stereo not drawn): less than 3 nM; `Oc1cc(NCCCNC2CCNc3c(Cl)cc(Br)cc32)nc2ccccc12` (stereo not drawn): less than 3 nM; `C=CCc1cc(I)cc(CNCCCNc2cc(O)c3ccccc3n2)c1OCC`: less than 3 nM.
Turning to `Oc1cc(NCCCNC2CCOc3c(Br)cc(Br)cc32)nc2ccccc12` (stereo not drawn) [2-(3-(6,8-dibromo-3,4-dihydro-2H-chromen-4-ylamino)propylamino)quinolin-4(1H)-one], the IC50 was 7.8 nM.
In turn, `CCOC(=O)c1cc(I)cc(CNCCCNc2cc(O)c3ccccc3n2)c1OCC` [2-Ethoxy-5-iodo-3-{[3-(4-oxo-1,4-dihydro-quinolin-2-ylamino)-propylamino]-methyl}-benzoic acid ethyl ester] displayed a half-maximal inhibitory concentration (IC50) of 21 nM.
`CCOc1c(CO)cc(I)cc1CNCCCNc1cc(O)c2ccccc2n1` [2-[3-(2-Ethoxy-3-hydroxymethyl-5-iodo-benzylamino)-propylamino]-1H-quinolin-4-one] displayed an IC50 of 4.1 nM.
In turn, `CCOc1c(I)cc(OC)cc1CNCCCNc1cc(O)c2ccccc2n1` [2-[3-(2-Ethoxy-3-iodo-5-methoxy-benzylamino)-propylamino]-1H-quinolin-4-one] registered an IC50 of 3.3 nM.
The same measure, in the same setting: next, `CCOc1c(I)cc(COC)cc1CNCCCNc1cc(O)c2ccccc2n1` [2-[3-(2-Ethoxy-3-iodo-5-methoxymethyl-benzylamino)-propylamino]-1H-quinolin-4-one]: 17 nM; `CCOc1c(I)cc(C)cc1CNCCCNc1cc(O)c2ccccc2n1` [2-[3-(2-Ethoxy-3-iodo-5-methyl-benzylamino)-propylamino]-1H-quinolin-4-one]: 7.2 nM.
The same measure, in the same setting: for `CCOc1c(C)cc(SC)cc1CNCCCNc1cc(O)c2ccccc2n1` [2-[3-(2-Ethoxy-3-methyl-5-methylsulfanyl-benzylamino)-propylamino]-1H-quinolin-4-one] the value was 5.1 nM.
`CCOc1c(C)cc(C(F)(F)F)cc1CNCCCNc1cc(O)c2ccccc2n1` [2-[3-(2-Ethoxy-3-methyl-5-trifluoromethyl-benzylamino)-propylamino]-1H-quinolin-4-one] came in with an IC50 of 6.8 nM.
Same read-out and setting: next, `CCOc1c(I)cc(CO)cc1CNCCCNc1cc(O)c2ccccc2n1` [2-[3-(2-Ethoxy-5-hydroxymethyl-3-iodo-benzylamino)-propylamino]-1H-quinolin-4-one]: 14 nM; `CCOc1c(CNCCCNc2cc(O)c3ccccc3n2)cc(I)cc1COC` [2-[3-(2-Ethoxy-5-iodo-3-methoxymethyl-benzylamino)-propylamino]-1H-quinolin-4-one]: 9.4 nM; `CCOc1c(C)cc(I)cc1CNCCCNc1cc(O)c2ccccc2n1` [2-[3-(2-Ethoxy-5-iodo-3-methyl-benzylamino)-propylamino]-1H-quinolin-4-one]: 3.2 nM.
Turning to `Oc1cc(NCCCNCc2ccc(Cl)c(Cl)c2)nc2ccccc12` [2-[3-(3,4-Dichloro-benzylamino)-propylamino]-1H-quinolin-4-one], the IC50 turned out to be 16 nM. This IC50 is about 5-fold higher than that of the compound before.
Consider `CCOc1c(Br)cc([S+](C)[O-])cc1CNCCCNc1cc(O)c2ccccc2n1` (stereo not drawn) [2-[3-(3-Bromo-2-ethoxy-5-methanesulfinyl-benzylamino)-propylamino]-1H-quinolin-4-one], for which the IC50 amounted to 23 nM.
`CCOc1c(CNCCCNc2cc(O)c3ccccc3n2)cc(I)cc1C(C)(C)C` [2-[3-(3-tert-Butyl-2-ethoxy-5-iodo-benzylamino)-propylamino]-1H-quinolin-4-one] displayed an IC50 of 120 nM.
For the compound `Oc1cc(NCCCNC2CCc3c(Cl)cc(Cl)cc32)nc2ccccc12` (stereo not drawn) [2-[3-(4,6-Dichloro-indan-1-ylamino)-propylamino]-1H-quinolin-4-one], the IC50 stood at 5.1 nM.
Take `Oc1cc(NCCCNC2CCCc3c(Cl)cc(Cl)cc32)nc2ccccc12` (stereo not drawn) [2-[3-(5,7-Dichloro-1,2,3,4-tetrahydro-naphthalen-1-ylamino)-propylamino]-1H-quinolin-4-one]: the IC50 is 3.8 nM.
`Oc1cc(NCCCNC2COc3c(Cl)cc(Cl)cc32)nc2ccccc12` (stereo not drawn) [2-[3-(5,7-Dichloro-2,3-dihydro-benzofuran-3-ylamino)-propylamino]-1H-quinolin-4-one] displayed an IC50 of 6 nM.
In the case of `Oc1cc(NCCCNC2CCNc3c(Br)cc(Br)cc32)nc2ccccc12` (stereo not drawn) [2-[3-(6,8-Dibromo-1,2,3,4-tetrahydro-quinolin-4-ylamino)-propylamino]-1H-quinolin-4-one], the IC50 amounted to 8 nM.
The same measure, in the same setting: next, `Oc1cc(NCCCNC2CCNc3c(Cl)cc(Cl)cc32)nc2ccccc12` (stereo not drawn) [2-[3-(6,8-Dichloro-1,2,3,4-tetrahydro-quinolin-4-ylamino)-propylamino]-1H-quinolin-4-one]: 23 nM; `CCc1cc(Br)cc2c1NCCC2NCCCNc1cc(O)c2ccccc2n1` (stereo not drawn) [2-[3-(6-Bromo-8-ethyl-1,2,3,4-tetrahydro-quinolin-4-ylamino)-propylamino]-1H-quinolin-4-one]: 4.3 nM.
On the same count and under the same terms, for `Cc1cc(Br)cc2c1NCCC2NCCCNc1cc(O)c2ccccc2n1` (stereo not drawn) [2-[3-(6-Bromo-8-methyl-1,2,3,4-tetrahydro-quinolin-4-ylamino)-propylamino]-1H-quinolin-4-one] the value was 9.4 nM; for `Oc1cc(NCCCNC2CCOc3c(I)cc(Cl)cc32)nc2ccccc12` (stereo not drawn) [2-[3-(6-Chloro-8-iodo-chroman-4-ylamino)-propylamino]-1H-quinolin-4-one], 9.4 nM; for `CCc1cc(I)c2c(c1)C(NCCCNc1cc(O)c3ccccc3n1)CCN2` (stereo not drawn) [2-[3-(6-Ethyl-8-iodo-1,2,3,4-tetrahydro-quinolin-4-ylamino)-propylamino]-1H-quinolin-4-one], 12 nM.
On the same count and under the same terms, next, `Oc1cc(NCCCNC2CCOc3c(Cl)cc(I)cc32)nc2ccccc12` (stereo not drawn) [2-[3-(8-Chloro-6-iodo-chroman-4-ylamino)-propylamino]-1H-quinolin-4-one]: 12 nM; `CCOC(=O)c1cc(I)c(OCC)c(CNCCCNc2cc(O)c3ccccc3n2)c1` [4-Ethoxy-3-iodo-5-{[3-(4-oxo-1,4-dihydro-quinolin-2-ylamino)-propylamino]-methyl}-benzoic acid ethyl ester]: 170 nM.
The compound `CCOc1c(C)cc(C#N)cc1CNCCCNc1cc(O)c2ccccc2n1` [4-Ethoxy-3-methyl-5-{[3-(4-oxo-1,4-dihydro-quinolin-2-ylamino)-propylamino]-methyl}-benzonitrile] came in with an IC50 of 3.9 nM.
On the same count and under the same terms, next, `CCOc1c(C#N)cc(Br)cc1CNCCCNc1cc(O)c2ccccc2n1` [5-Bromo-2-ethoxy-3-{[3-(4-oxo-1,4-dihydro-quinolin-2-ylamino)-propylamino]-methyl}-benzonitrile]: 4 nM.
Still for that read-out and setting: next, `CCOc1c(CNCCCNc2cc(O)c3ccccc3n2)cc(Br)cc1OC` [TCMDC-139833]: 13 nM; `CCOc1c(CNCCCNc2cc(O)c3ccccc3n2)cc(I)cc1OC` [TCMDC-139847]: 12 nM.
